Data reported in patent US20070043076A1, “Substituted 2-arylmethylene-n-aryl-n'aryl-malonamides and analogs as activators of caspases and inducers of apoptosis” (priority 2003, published 2007).
Read-outs that look alike come from different tables or passages of the source.

What was measured:
[1] = system: T-47D; assay: Inhibition of cell proliferation (GI50, CellTiter 96 AQueous One) in T-47D cells; assay type: cell-based; conditions: Homo sapiens, T47D, 48 h incubation, read-out: GI50 (dose for 50% inhibition of cell proliferation)
Procedure: (§1) T-47D and DLD-1 cells were grown and harvested as in Example 105. An aliquot of 90 μL of cells (2.2×10^4 cells/mL) was added to a well of a 96-well microtiter plate containing 10 μl of a 10% DMSO in RPMI-1640 media solution containing 1 nM to 100 μM of N,N′-bis-(3-trifluoromethyl-phenyl)-2-(4-isopropyl-benzylidene)-malonamide (0.1 nM to 10 μM final). An aliquot of 90 μL of cells was added to a well of a 96-well microtiter plate containing 10 μL of a 10% DMSO in RPMI-1640 media solution without compound as the control sample for maximal cell proliferation (AMax). The samples were mixed by agitation and then incubated at 37° C. for 48 h in a 5% CO2-95% humidity incubator. After incubation, the samples were removed from the incubator and 20 μL of CellTiter 96 AQUEOUS One Solution Cell Proliferation™ reagent (Promega) was added. The samples were mixed by agitation and incubated at 37° C. for 2-4 h in a 5% CO2-95% humidity incubator. Using an absorbance plate reader (Model 1420 Wallac Instruments), an initial reading (T=0) was made approximately 1-2 min after addition of the solution, employing absorbance at 490 nm. This determines the possible background absorbance of the test compounds. No absorbance for N,N′-bis-(3-trifluoromethyl-phenyl)-2-(4-isopropyl-benzylidene)-malonamide was found at 490 nm. After the 2-4 h incubation, the samples were read for absorbance as above (ATest).
(§2) Baseline for GI50 (dose for 50% inhibition of cell proliferation) of initial cell numbers were determined by adding an aliquot of 90 μL of cells or 90 μL of media, respectively, to wells of a 96-well microtiter plate containing 10 μL of a 10% DMSO in RPMI-1640 media solution. The samples were mixed by agitation and then incubated at 37° C. for 0.5 h in a 5% CO2-95% humidity incubator. After incubation, the samples were removed from the incubator and 20 μL of CellTiter 96 AQUEOUS One Solution Cell Proliferation™ reagent (Promega) was added. The samples were mixed by agitation and incubated at 37° C. for 2-4 h in a 5% CO2-95% humidity incubator. Absorbance was read as above, (AStart) defining absorbance for initial cell number used as baseline in GI50 determinations.
(§3) GI50 (dose for 50% inhibition of cell proliferation) is the concentration where [(ATest−AStart)/(AMax−AStart)]=0.5.

[2] = system: T-47D; assay: Caspase cascade activation (Ac-DEVD-R110 fluorogenic substrate) in T-47D cells; assay type: cell-based, Human; conditions: 24 h incubation; for Caspase Activity Ratio: ratio of net RFU to that of control samples; for EC50: 0.16 to 10 μM final, read-out: Caspase potency EC50
Procedure: (§4) Human breast cancer cell lines T-47D and ZR-75-1 were grown according to media component mixtures designated by American Type Culture Collection +10% FCS (Invitrogen Corporation), in a 5% CO2-95% humidity incubator at 37° C. T-47D and ZR-75-1 cells were maintained at a cell density between 30 and 80% confluency and for HL-60 at a cell density of 0.1 to 0.6×10^6 cells/mL. Cells were harvested at 600×g and resuspended at 0.65×10^6 cells/mL into appropriate media +10% FCS. An aliquot of 45 μL of cells was added to a well of a 96-well microtiter plate containing 5 μL of a 10% DMSO in RPMI-1640 media solution containing 1.6 to 100 μM of N,N′-bis-(3-trifluoromethyl-phenyl)-2-(4-isopropyl-benzylidene)-malonamide or other test compound (0.16 to 10 μM final). An aliquot of 45 μL of cells was added to a well of a 96-well microtiter plate containing 5 μL of a 10% DMSO in RPMI-1640 media solution without test compound as the control sample. The samples were mixed by agitation and then incubated at 37° C. for 24 h in a 5% CO2-95% humidity incubator. After incubation, the samples were removed from the incubator and […] of a solution containing 20 μM of N-(Ac-DEVD)-N′-ethoxycarbonyl-R110 fluorogenic substrate (SEQ ID NO:1) (Cytovia, Inc.; U.S. Pat. No. 6,335,429), 20% sucrose (Sigma), 20 mM DTT (Sigma), 200 mM NaCl (Sigma), 40 mM Na PIPES buffer pH 7.2 (Sigma), and 500 μg/mL lysolecithin (Calbiochem) was added. The samples were mixed by agitation and incubated at room temperature. Using a fluorescent plate reader (Model 1420 Wallac Instruments), an initial reading (T=0) was made approximately 1-2 min after addition of the substrate solution, employing excitation at 485 nm and emission at 530 nm, to determine the background fluorescence of the control sample. After approximately 3 h of incubation, the samples were read for fluorescence as above (T=3 h).
(§5) The relative Fluorescence Unit values (RFU) were used to calculate the sample readings as follows: RFU(T=3h)−Control RFU(T=0)=Net RFU(T=3h)
(§6) The activity of caspase cascade activation was determined by the ratio of the net RFU value for N,N′-bis-(3-trifluoromethyl-phenyl)-2-(4-isopropyl-benzylidene)-malonamide to that of control samples. The EC50 (nM) was determined by a sigmoidal dose-response calculation (Prism 2.0, GraphPad Software Inc.).

[3] = system: ZR-75-1; assay: Caspase cascade activation (Ac-DEVD-R110 fluorogenic substrate) in ZR-75-1 cells; assay type: cell-based, Human; conditions: 24 h incubation; for Caspase Activity Ratio: ratio of net RFU to that of control samples; for EC50: 0.16 to 10 μM final, read-out: Caspase potency EC50
Procedure: as §4, §5, §6

[4] = system: DLD-1; assay: Inhibition of cell proliferation (GI50, CellTiter 96 AQueous One) in DLD-1 cells; assay type: cell-based; conditions: Homo sapiens, 48 h incubation, read-out: GI50 (dose for 50% inhibition of cell proliferation)
Procedure: as §1, §2, §3

Row | Structure (SMILES) | GI50 [1] [nM] | Caspase Activity Ratio [2] | EC50 ([2]; Homo sapiens, T47D) [nM] | Caspase Activity Ratio [3] | EC50 ([3]; Homo sapiens) [µM] | GI50 [4] [nM] | EC50 [2] [nM] | EC50 [3] [µM]
1 | O=C(Nc1cccc(C(F)(F)F)c1)C(=Cc1ccccc1)C(=O)Nc1cccc(C(F)(F)F)c1 [Example 15, N,N′-Bis-(3-trifluoromethyl-phenyl)-2-benzylidene-malonamide] | 46 | 16 | 1380 | 6 | 2.79 | 1340 |  | 
2 | O=C(Nc1cccc(C(F)(F)F)c1)C(=Cc1ccncc1)C(=O)Nc1cccc(C(F)(F)F)c1 [Example 8, N,N′-Bis-(3-trifluoromethyl-phenyl)-2-(4-pyridyl-methylene)-malonamide] | 1570 | 17 | 4050 | 9.5 | 4.6 | 1530 |  | 
3 | O=C(Nc1cccc(C(F)(F)F)c1)C(=Cc1ccc(Cl)cc1Cl)C(=O)Nc1cccc(C(F)(F)F)c1 [Example 2, N,N′-Bis-(3-trifluoromethyl-phenyl)-2-(2,4-dichloro-benzylidene)-malonamide] | 150 | 16 | 647 | 18 | 0.906 | 200 |  | 
4 | CC(C)c1ccc(C=C(C(=O)Nc2cccc(Cl)c2)C(=O)Nc2cccc(Cl)c2)cc1 [Example 14, N,N′-Bis-(3-chloro-phenyl)-2-(4-isopropyl-benzylidene)-malonamide] | 1190 | 21 | 738 | 7.2 | 1.98 | 1230 |  | 
5 | O=C(Nc1cccc(C(F)(F)F)c1)C(=Cc1cnc[nH]1)C(=O)Nc1cccc(C(F)(F)F)c1 [Example 16, N,N′-Bis-(3-trifluoromethyl-phenyl)-2-(3H-imidazol-4-yl-methylene)-malonamide] | 1720 |  |  |  |  | 1680 |  | 
6 | CC(C)c1ccc(C=C(C(=O)Nc2ccccc2C(F)(F)F)C(=O)Nc2ccccc2C(F)(F)F)cc1 [Example 11, N,N′-Bis-(2-trifluoromethyl-phenyl)-2-(4-isopropyl-benzylidene)-malonamide] |  | 1 | > 10000 | 1 | > 10 |  |  | 
7 | CCc1ccc(C=C(C(=O)Nc2cccc(C(F)(F)F)c2)C(=O)Nc2cccc(C(F)(F)F)c2)cc1 [Example 26, N,N′-Bis-(3-trifluoromethyl-phenyl)-2-(4-ethyl-benzylidene)-malonamide] | 666 |  |  |  |  | 1650 |  | 
8 | COc1cccc(NC(=O)C(=Cc2ccc(C(C)C)cc2)C(=O)Nc2cccc(OC)c2)c1 [Example 13, N,N′-Bis-(3-methoxy-phenyl)-2-(4-isopropyl-benzylidene)-malonamide] |  | 21 | 2890 | 4.5 | 5.5 |  |  | 
9 | O=C(Nc1cccc(C(F)(F)F)c1)C(=Cc1ccco1)C(=O)Nc1cccc(C(F)(F)F)c1 [Example 4, N,N′-Bis-(3-trifluoromethyl-phenyl)-2-furan-2-yl-methylene-malonamide] |  | 28 |  | 6 |  |  | 5750 | 5.6
10 | CC(C)c1ccc(C=C(C(=O)Nc2cccc(Br)c2)C(=O)Nc2cccc(Br)c2)cc1 [Example 20, N,N′-Bis-(3-bromo-phenyl)-2-(4-isopropyl-benzylidene)-malonamide] | 1520 |  |  |  |  | 1660 |  | 
11 | CC(C)c1ccc(CC(C(=O)Nc2cccc(C(F)(F)F)c2)C(=O)Nc2cccc(C(F)(F)F)c2)cc1 [Example 7, N,N′-Bis-(3-trifluoromethyl-phenyl)-2-(4-isopropyl-benzyl)-malonamide] |  | 1 | > 10000 | 2.2 | 1.7 |  |  | 
12 | Cc1ccc(C=C(C(=O)Nc2cccc(C(F)(F)F)c2)C(=O)Nc2cccc(C(F)(F)F)c2)c(C)c1 [Example 5, N,N′-Bis-(3-trifluoromethyl-phenyl)-2-(2,4-dimethyl-benzylidene)-malonamide] |  | 30 | 1900 | 26 | 5.4 |  |  | 
13 | CC(C)c1ccc(C=C(C(=O)Nc2cccc(O)c2)C(=O)Nc2cccc(O)c2)cc1 [Example 18, N,N′-Bis-(3-hydroxy-phenyl)-2-(4-isopropyl-benzylidene)-malonamide] | 467 |  |  |  |  | 1650 |  | 
14 | CC(C)c1ccc(C=C(C(=O)Nc2ccc(C(F)(F)F)cc2)C(=O)Nc2ccc(C(F)(F)F)cc2)cc1 [Example 12, N,N′-Bis-(4-trifluoromethyl-phenyl)-2-(4-isopropyl-benzylidene)-malonamide] |  | 1 | > 10000 | 1 | > 10 |  |  | 
15 | COc1ccc(C=C(C(=O)Nc2cccc(C(F)(F)F)c2)C(=O)Nc2cccc(C(F)(F)F)c2)c(OC)c1 [Example 6, N,N′-Bis-(3-trifluoromethyl-phenyl)-2-(2,4-dimethoxy-benzylidene)-malonamide] |  | 1 | > 10000 | 1 | > 10 |  |  | 
16 | CC(C)c1ccc(C=C(C(=O)Nc2ccccc2)C(=O)Nc2ccccc2)cc1 [Example 10, N,N′-Diphenyl-2-(4-isopropyl-benzylidene)-malonamide] |  | 16 | 5790 | 2.5 | 4.5 |  |  | 
17 | COc1cccc(NC(=O)C(=Cc2ccc(C(F)(F)F)cc2)C(=O)Nc2cccc(OC)c2)c1 [Example 1, N,N′-Bis-(3-methoxy-phenyl)-2-(4-trifluoromethyl-benzylidene)-malonamide] |  | 28 | 2850 | 14 | 5.5 |  |  | 
